Usually EC50 stands for the concentration at which the effect is half-maximal.

The source of these data is patent US9282744B2, “Synergistic fungicide composition” (JIANGSU HUIFENG AGROCHEMICAL CO., LTD., priority 2012, dated 2016).

The subject of experiment [1] is cucumber downy mildew pathogenic fungi. The experiment is described as follows: Test of toxicity of compound benziothiazolinone and dithianon on cucumber downy mildew pathogenic fungi. Format: in vivo. Particulars: for ATI (actual toxicity index): benziothiazolinone as standard = 100; for EC50: cucumber downy mildew, Table 1. How it is done:
1. Test of Toxicity of Compound Benziothiazolinone and Dithianon on Cucumber Downy Mildew Pathogenic Fungi
Subjects for Test: Cucumber Downy Mildew Pathogenic Fungi
(§1) The incidence of whole cucumber leaves was investigated according to test grading level, and the disease index and the prevention and treatment effect were calculated.
(§2) The prevention and treatment effect was converted into probability values (y), the heights of the chemicals (μg/ml) were converted into logarithm values (x), the toxicity equation and the median inhibition concentration EC50 were calculated by the least square method, and the toxicity index level co-toxicity coefficient (CTC) of the chemicals was calculated according to the Sun Yunpei's method. Actual toxicity index(ATI)=(EC50 of the standard reagent/EC50 of the test reagent)×100 Theoretical toxicity index(TTI)=the toxicity index of chemicalA×the percentage of A in the mixture+the toxicity index of chemical B×the percentage of B in the mixture Co-toxicity coefficient(CTC)=[Actual toxicity index(ATI) of the mixture/Theoretical toxicity index(TTI) of the mixture][…]

Experiment [2] shares this test system. The experiment is described as follows: Test of toxicity of compound benziothiazolinone and epoxiconazol on cucumber downy mildew. Format: in vivo. Particulars: for ATI (actual toxicity index): benziothiazolinone as standard = 100; for EC50: cucumber downy mildew, Table 4. How it is done:
as §1, §2
4. Test of Toxicity of Compound Benziothiazolinone and Epoxiconazol on Cucumber Downy Mildew

Experiment [3] has the same test system. The experiment is described as follows: Test of toxicity of compound benziothiazolinone and iprodione on cucumber downy mildew. Format: in vivo. Conditions: for ATI (actual toxicity index): benziothiazolinone as standard = 100; for EC50: cucumber downy mildew, Table 3. How it is done: as §1, §2
3. Test of Toxicity of Compound Benziothiazolinone and Iprodione on Cucumber Downy Mildew

The test system is the same in experiment [4]. The experiment in a line: Test of toxicity of compound benziothiazolinone and dimethomorph on cucumber downy mildew. In kind it is in vivo. Conditions: for ATI (actual toxicity index): benziothiazolinone as standard = 100; for EC50: cucumber downy mildew, Table 2. How it is done:
as §1, §2
2. Test of Toxicity of Compound Benziothiazolinone and Dimethomorph on Cucumber Downy Mildew

Experiment [5] relates to oomycetes fungi. Particulars: formation stages of sporangiophores and oospores of oomycetes; cited from earlier work.
[6] abbreviates: Cucumis sativus, read-out: EC50.

The structures appear in SMILES notation. ≈ marks a conversion by molar mass, not a printed value.

For the compound `O=c1[nH]sc2ccccc12` [Benziothiazolinone], the “ATI (actual toxicity index)” value in experiment [1] turned out to be 100.0; in experiment [2] it was 100.00; in experiment [3], 100.00; in experiment [4], 100.0. The “EC50” value in experiment [1] worked out at 3.25 µg/mL (≈ 21.5 µM); in experiment [2], 3.81 µg/mL (≈ 25.2 µM); in experiment [3] it was 4.21 µg/mL (≈ 27.8 µM); in experiment [4], 4.08 µg/mL (≈ 27 µM).

Consider `COc1ccc(C(=CC(=O)N2CCOCC2)c2ccc(Cl)cc2)cc1OC` [Dimethomorph], for which the “concentration at which inhibited” value in experiment [5] is 0.25 µg/mL. For the same compound, the half-maximal effective concentration (EC50) in experiment [4] (setting [6]) was found to be 6.36 µg/mL (≈ 16.4 µM). In experiment [4], the “ATI (actual toxicity index)” value is 63.9.

Take `N#Cc1sc2c(=O)c3ccccc3c(=O)c=2sc1C#N` [Dithianon]: the EC50 in experiment [1] (setting [6]) came to 5.41 µg/mL (≈ 18.3 µM). Moreover, the “ATI (actual toxicity index)” value in experiment [1] is reported as 60.1.

Consider `Fc1ccc([C@]2(Cn3cncn3)O[C@H]2c2ccccc2Cl)cc1` [Epoxiconazol], for which, in experiment [2], the “ATI (actual toxicity index)” value is listed as 89.65 and the half-maximal effective concentration (EC50) turned out to be 4.25 µg/mL (≈ 12.9 µM).

For `CC(C)NC(=O)N1CC(=O)N(c2cc(Cl)cc(Cl)c2)C1=O` [Iprodione], the EC50 in experiment [3] (setting [6]) came to 5.82 µg/mL (≈ 17.6 µM). Moreover, the “ATI (actual toxicity index)” value in experiment [3] is 72.34.
